Source: patent EP4151214A1, “RIMEGEPANT FOR TREATMENT OF HUMAN CORONAVIRUS INFECTION” (priority 2021, dated 2023)

What was measured:
[1] = target: SARS-CoV-2 nsp15 (Severe acute respiratory syndrome coronavirus 2, UniProt P0DTD1); assay: nsp15 endoribonuclease activity assay (gel-based, 32P-labelled 16-mer RNA); assay type: biochemical
Protocol: (§1) Both RNAs were labelled at their 5' end with [^32P]-γ-ATP and T4 Polynucleotide Kinase (Ambion) in a standard reaction. MicroSpin G-50 columns (Cytiva) were used to remove excess [^32P]-γ-ATP. The synthetic RNAs were resuspended in 10 mM of Tris-HCI pH 8.0 and incubated 10 min at 80°C followed by 45 min at 37°C. • Different concentrations (µM) of rimegepant were incubated with 300 nM of nsp15 or with 40 nM-160 nM of nsp14-nsp10 proteins (7 minutes at room temperature), before initiating the in vitro assay through the addition of the P^32-RNA substrate (50 nM). The activity assays were performed in a final volume of 12 µl containing the activity buffer 50 mM HEPES pH 7.4, 1 mM DTT, 5 mM MgCl2 in case of nsp14-nsp10 complex, and 25 mM HEPES pH 7.4, 50 mM NaCl, 1 mM DTT, 10 mM NaHPO4, 5 mM MnCl2 for nsp15. The reactions were incubated at 37°C, and then aliquots of 4 µl were withdrawn at the time-points indicated in the respective images. […] All the experiments were performed at least in triplicate. • Inhibition profile curves were calculated by quantification of gel-based RNase assays. […] The inhibitory effect of rimegepant on SARS-CoV-2 multiplication in Vero E6 cells was evaluated. […] In addition, the viability of cells in culture was assessed by measuring intracellular ATP levels, using a luminescent assay as described above (CellTiter-Glo® Luminescent Cell Viability Assay). […]

[2] = target: nsp14-nsp10 protein complex (Severe acute respiratory syndrome coronavirus 2, UniProt P0DTD1); assay: nsp14 ExoN activity assay with nsp14-nsp10 complex (gel-based, 32P-labelled H4 RNA); assay type: biochemical, SARS-CoV-2
Protocol: as §1

[3] = test system: SARS-CoV-2; assay type: cell-based
[4] = target: T1, CGRP receptor (Homo sapiens, UniProt O60894+Q16602); details: orally disintegrating tablet; cited from earlier work
T1 construct: host or cells: human patients (clinical use)
T1 sequence (Q16602 23-461): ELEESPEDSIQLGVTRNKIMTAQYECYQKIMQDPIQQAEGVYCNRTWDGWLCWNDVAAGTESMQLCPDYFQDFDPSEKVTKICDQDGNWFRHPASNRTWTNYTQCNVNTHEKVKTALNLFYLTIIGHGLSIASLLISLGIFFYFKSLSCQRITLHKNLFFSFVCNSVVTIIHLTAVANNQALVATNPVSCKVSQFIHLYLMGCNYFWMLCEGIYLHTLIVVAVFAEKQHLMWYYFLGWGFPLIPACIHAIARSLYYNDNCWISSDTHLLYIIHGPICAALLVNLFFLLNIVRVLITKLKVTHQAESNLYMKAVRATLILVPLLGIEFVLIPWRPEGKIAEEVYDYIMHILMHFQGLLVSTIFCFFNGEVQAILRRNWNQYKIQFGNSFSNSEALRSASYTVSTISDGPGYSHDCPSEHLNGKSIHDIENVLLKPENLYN
T1 sequence (O60894 27-148): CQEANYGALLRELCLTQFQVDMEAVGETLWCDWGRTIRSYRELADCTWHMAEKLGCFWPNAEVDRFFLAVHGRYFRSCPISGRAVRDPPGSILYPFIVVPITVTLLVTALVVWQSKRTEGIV

[5] = cited from earlier work
[6] = cited from earlier work; remark: listed apart in the source

N[C@@H]1c2cccnc2[C@H](OC(=O)N2CCC(n3c(=O)[nH]c4ncccc43)CC2)CC[C@H]1c1cccc(F)c1F [rimegepant, Rimegepant]
IC50 [1]: 98.95 ± 0.28 µM | IC50 [2]: 1700 µM | duration of antiviral effect ([3]; 175 µM of rimegepant): 72 h | rescue of Vero E6 cells infected with SARS-CoV-2 ([3]; 175 µM, ATP levels): totally rescue the cells from the infection | duration of effect after a single dose [4]: up to 48 h | plasma concentrations achieved relative to those at 75 mg ([5]; Phase I, without finding a maximum tolerated dose): 50 times | administered dose eliminated unchanged ([5]; in vivo): Approximately 77% | bioavailability ([5]; in vivo): 64% | elimination half-life ([5]; in vivo): approximately 11 h | major metabolites (i.e., > 10%) in plasma ([5]; in vivo): no major metabolites | Cmax (maximum serum concentrations) ([5]; near the low predicted therapeutic dose of 75 mg, Phase I): 784 ng/mL | Tmax (maximum plasma concentrations achieved at) ([5]; oral administration of the orally disintegrating tablet): 1.5 h | maximum tolerated dose (MTD) ([6]; Phase I clinical trials): not found | well tolerated multiple doses ([6]; for 14 days, without significant adverse events (Tong et al 2013)): up to 600 mg | well tolerated single doses ([6]; healthy subjects, compared to placebo (Tong et al 2013)): up to 1500 mg
